Results taken from patent publication US8338465B2, “Cyclic carboxylic acid rhodanine derivatives for the treatment and prevention of tuberculosis” (priority 2006, dated 2012).
pIC50: −log10 of the molar value. Where two headings read alike, the source gives them in different places.

Target: T1, dihydrolipoamide acyltransferase (DlaT) (Mycobacterium tuberculosis, UniProt P9WIS7)
T1 sequence (P9WIS7 1-553): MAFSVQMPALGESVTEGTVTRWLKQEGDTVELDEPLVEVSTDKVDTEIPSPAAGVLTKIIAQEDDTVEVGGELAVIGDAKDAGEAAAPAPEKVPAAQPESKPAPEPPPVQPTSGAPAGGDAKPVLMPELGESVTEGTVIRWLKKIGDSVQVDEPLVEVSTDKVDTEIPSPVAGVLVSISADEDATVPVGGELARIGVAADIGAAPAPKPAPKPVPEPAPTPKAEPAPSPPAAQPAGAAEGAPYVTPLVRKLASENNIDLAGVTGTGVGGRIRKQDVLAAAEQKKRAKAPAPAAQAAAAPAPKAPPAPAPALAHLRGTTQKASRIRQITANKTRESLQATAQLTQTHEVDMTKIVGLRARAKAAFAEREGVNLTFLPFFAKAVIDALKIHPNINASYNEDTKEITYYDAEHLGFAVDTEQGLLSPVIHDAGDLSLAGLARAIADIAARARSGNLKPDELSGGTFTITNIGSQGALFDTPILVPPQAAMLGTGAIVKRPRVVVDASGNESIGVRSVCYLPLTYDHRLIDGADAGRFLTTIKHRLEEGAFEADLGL
Assay: DlaT inhibition (Dlat IC50); DTNB peroxidase assay with Lpd, DlaT and AhpD
Assay type: biochemical

[1] = Table 1, Compounds A1 to A294, read-out: Dlat IC50 category

SMILES	pIC50 (Dlat IC50 category)	pIC50 [1]	further results
O=C(O)CN1C(=O)C(=Cc2ccc(-c3ccc(Cc4ccc(Cl)cc4)cc3)o2)SC1=S [Compound B79]	> 5.00	–	–
O=C(O)c1cccc(N2C(=O)C(=Cc3ccc(-c4ccc(C(=O)c5ccccc5)cc4)o3)SC2=S)c1 [Compound A48]	–	> 5.00	–
O=C(O)c1cccc(N2C(=O)C(=Cc3ccc(-c4ccc(Cl)c(Cl)c4)o3)SC2=S)c1 [Compound A7]	–	> 5.00	–
O=C(O)c1cccc(N2C(=O)C(=Cc3ccc(Cc4ccccc4Cl)o3)SC2=S)c1 [Compound N1]	–	–	pIC50 (Dlat IC50 category, Table 14, Compounds N1 to N3): > 5.00
NS(=O)(=O)c1ccc(N2C(=O)C(=Cc3ccc(-c4cncnc4)o3)SC2=S)cc1 [Compound Q3]	–	–	pIC50 (Dlat IC50 category, Table 17, Compounds Q1 to Q9): 4.40 to 4.96
O=C(O)C(c1ccccc1)N1C(=O)C(=Cc2cc(-c3cccc(C(F)(F)F)c3)co2)SC1=S (stereo not drawn) [Compound B38]	> 5.00	–	–
NC(=O)c1cccc(N2C(=O)C(=Cc3ccc(-c4ccc(C(=O)O)cc4)o3)SC2=S)c1 [Compound A293]	–	4.40 to 4.96	–
Cc1cc(F)ccc1-c1ccc(C=C2SC(=S)N(c3cc(C(=O)O)ccc3F)C2=O)o1 [Compound A149]	–	> 5.00	–
CC(C)c1ccc(-c2ccc(C=C3SC(=S)N(CC(=O)O)C3=O)o2)cc1 [Compound B70]	4.40 to 4.96	–	–
COc1ccc(C)cc1-c1ccc(C=C2SC(=S)N(C3CCC(C(=O)O)CC3)C2=O)o1 (stereo not drawn) [Compound C75, 4-{5-[5-(2-Methoxy-5-methyl-phenyl)-furan-2-ylmethylene]-4-oxo-2-thioxo-thiazolidin-3-yl}-cyclohexanecarboxylic acid]	4.40 to 4.96	–	–
COc1ccc(C)cc1-c1ccc(C=C2SC(=S)N(c3cc(C(=O)O)ccc3F)C2=O)o1 [Compound A254]	–	> 5.00	–
NC(=O)c1cccc(N2C(=O)C(=Cc3ccc(-c4ccc(Cl)cc4)o3)SC2=S)c1 [Compound A77]	–	4.40 to 4.96	–
O=C(O)C(c1ccccc1)N1C(=O)C(=Cc2ccc(-c3ccc(O)cc3)o2)SC1=S (stereo not drawn) [Compound B29]	4.40 to 4.96	–	–
O=C(O)c1ccc(F)c(N2C(=O)C(=Cc3ccc(-c4cccc(C(F)(F)F)c4)o3)SC2=S)c1 [Compound A103]	–	> 5.00	–
O=C(O)c1cccc(N2C(=O)C(=Cc3ccc(-c4ccc(CSc5ccccc5)cc4)o3)SC2=S)c1 [Compound A53]	–	4.40 to 4.96	–
COc1cc(F)ccc1-c1ccc(C=C2SC(=S)N(c3cccc(C(=O)O)c3)C2=O)o1 [Compound A175]	–	> 5.00	–
O=C(O)C(Cc1ccccc1)N1C(=O)C(=Cc2ccc(-c3cc4ccccc4s3)o2)SC1=S (stereo not drawn) [Compound J3]	–	–	pIC50 (Dlat IC50 category, Table 10, Compounds J1 to J3): > 5.00
CS(=O)(=O)c1ccc(-c2ccc(C=C3SC(=S)N(c4ccc(F)c(C(=O)O)c4)C3=O)o2)cc1 [Compound A268]	–	> 5.00	–
CSc1ccccc1-c1ccc(C=C2SC(=S)N(C3CCC(C(=O)O)CC3)C2=O)o1 (stereo not drawn) [Compound C54, 4-{5-[1-[5-(2-methylsulfanyl-phenyl)-furan-2-yl]-methylidene]-4-oxo-2-thioxo-thiazolidin-3-yl}-cyclohexanecarboxylic acid]	> 5.00	–	–

SMILES	pIC50 (Dlat IC50 category)	pIC50 [1]	further results
O=C(O)CCCCCN1C(=O)C(=Cc2ccc(-c3ccc(O)cc3)o2)SC1=S [Compound B27]	> 5.00	–	–
COc1ccc(-c2ccc(C=C3SC(=S)N(Nc4ccccc4C(=O)O)C3=O)o2)cc1F [Compound D26, 2-{5-[1-[5-(3-fluoro-4-methoxy-phenyl)-furan-2-yl]-methylidene]-4-oxo-2-thioxo-thiazolidin-3-ylamino}-benzoic acid]	> 5.00	–	–
CC(C(=O)O)N1C(=O)C(=Cc2ccc(-c3ccc(F)cc3)o2)SC1=S (stereo not drawn) [Compound B98]	4.10 to 4.39	–	–
O=C(O)c1ccc(F)c(N2C(=O)C(=Cc3ccc(-c4c(Cl)cccc4Cl)o3)SC2=S)c1 [Compound A106]	–	> 5.00	–
Cc1ccccc1-c1ccc(C=C2SC(=S)N(c3cccc(C(=O)O)c3)C2=O)o1 [Compound A134]	–	4.40 to 4.96	–
O=C(O)CCCCCN1C(=O)C(=Cc2cc(-c3cccc(C(F)(F)F)c3)co2)SC1=S [Compound B39]	4.40 to 4.96	–	–
CC(C)Oc1ccc(-c2ccc(C=C3SC(=S)N(Nc4ccccc4C(=O)O)C3=O)o2)cc1 [Compound D54, 2-{5-[5-(4-isopropoxy-phenyl)-furan-2-ylmethylene]-4-oxo-2-thioxo-thiazolidin-3-ylamino}-benzoic acid]	> 5.00	–	–
CCCCc1ccc(-c2ccc(C=C3SC(=S)N(c4cccc(C(=O)O)c4)C3=O)o2)cc1 [Compound A263]	–	> 5.00	–
O=C(O)c1cccc(N2C(=O)C(=Cc3ccc(-c4ccc(Cl)cc4[N+](=O)[O-])o3)SC2=S)c1 [Compound A131]	–	4.40 to 4.96	–
O=C(O)c1ccc(-c2ccc(C=C3SC(=S)N(c4cccc(O)c4)C3=O)o2)cc1 [Compound A290]	–	> 5.00	–
O=C(O)C(c1ccccc1)N1C(=O)C(=Cc2ccc(-c3ccc(-c4ccccc4)cc3)o2)SC1=S (stereo not drawn) [Compound B19]	> 5.00	–	–
O=C(O)c1cccc(N2C(=O)C(=Cc3ccc(-c4ccc(Oc5ccccc5)cc4)o3)SC2=S)c1 [Compound A13]	–	> 5.00	–
O=C(O)CCN1C(=O)C(=Cc2ccc(-c3cccc(C(F)(F)F)c3)o2)SC1=S [Compound B3]	> 5.00	–	–
Cc1ccc(-c2ccc(C=C3SC(=S)N(c4cc(C(=O)O)cc(C(F)(F)F)c4)C3=O)o2)cc1 [Compound A224]	–	> 5.00	–
O=C(O)c1cccc(N2C(=O)C(=Cc3ccc(-c4ccc(Cc5ccc(Cl)cc5)cc4)o3)SC2=S)c1 [Compound A84]	–	> 5.00	–
O=C(O)c1cc(C(=O)O)cc(N2C(=O)C(=Cc3ccc(-c4ccccc4Cl)o3)SC2=S)c1 [Compound A230]	–	> 5.00	–
COc1ccccc1-c1ccc(C=C2SC(=S)N(c3cc(C(=O)O)ccc3Cl)C2=O)o1 [Compound A140]	–	> 5.00	–
Cc1cc(F)ccc1-c1ccc(C=C2SC(=S)N(Nc3ccccc3C(=O)O)C2=O)o1 [Compound D10, 2-{5-[1-[5-(4-fluoro-2-methyl-phenyl)-furan-2-yl]-methylidene]-4-oxo-2-thioxo-thiazolidin-3-ylamino}-benzoic acid]	> 5.00	–	–
O=C(O)c1cc(N2C(=O)C(=Cc3ccc(-c4ccccc4Cl)o3)SC2=S)cc(C(F)(F)F)c1 [Compound A221]	–	4.40 to 4.96	–

SMILES	pIC50 (Dlat IC50 category)	pIC50 [1]	further results
O=C(O)c1ccccc1NN1C(=O)C(=Cc2ccc(-c3ccc(OCc4ccccc4)cc3)o2)SC1=S [Compound D48, 2-{5-[1-[5-(4-benzyloxy-phenyl)-furan-2-yl]-methylidene]-4-oxo-2-thioxo-thiazolidin-3-ylamino}-benzoic acid]	4.40 to 4.96	–	–
O=C(O)CCCCCN1C(=O)C(=Cc2cccc(-c3ccccc3Cl)n2)SC1=S [Compound B15]	4.40 to 4.96	–	–
CC(=O)Nc1ccc(-c2ccc(C=C3SC(=S)N(C4CCCC(C(=O)O)C4)C3=O)o2)cc1 (stereo not drawn) [Compound C39, 3-{5-[5-(4-Acetylamino-phenyl)-furan-2-ylmethylene]-4-oxo-2-thioxo-thiazolidin-3-yl}-cyclohexanecarboxylic acid]	> 5.00	–	–
CC(C)(C)c1ccc(-c2ccc(C=C3SC(=S)N(c4cccc(C(=O)O)c4)C3=O)o2)c(O)c1 [Compound A133]	–	> 5.00	–
CC(C(=O)O)N1C(=O)C(=Cc2ccc(-c3ccccc3Cl)o2)SC1=S (stereo not drawn) [Compound B94]	4.40 to 4.96	–	–
CS(=O)(=O)c1ccc(-c2ccc(C=C3SC(=S)N(CCCC(=O)O)C3=O)o2)cc1 [Compound B93]	4.40 to 4.96	–	–
O=C(O)CCc1cccc(N2C(=O)C(=Cc3ccc(-c4cccc(Cl)c4)o3)SC2=S)c1 [Compound A119]	–	> 5.00	–
O=C(O)c1ccc(F)c(N2C(=O)C(=Cc3ccc(-c4ccccc4OCc4ccccc4)o3)SC2=S)c1 [Compound A180]	–	> 5.00	–
O=C(O)c1cncc(N2C(=O)C(=Cc3ccc(-c4ccccc4Cl)o3)SC2=S)c1 [Compound M1]	–	–	pIC50 (Dlat IC50 category, Table 13, Compounds M1 to M4): > 5.00
O=C(O)CCN1C(=O)C(=Cc2cccc(-c3ccc(Cl)s3)n2)SC1=S [Compound P2]	–	–	pIC50 (Dlat IC50 category, Table 16, Compounds P1 to P2): 4.40 to 4.96
CC(C)C(C(=O)O)N1C(=O)C(=Cc2ccc(-c3ccc(Cl)cc3)o2)SC1=S (stereo not drawn) [Compound B103]	> 5.00	–	–
O=C(O)c1cccc(N2C(=O)C(=Cc3ccc(-c4cccc([N+](=O)[O-])c4)o3)SC2=S)c1 [Compound A127]	–	> 5.00	–
O=C(O)C1CCC(N2C(=O)C(=Cc3ccc(-c4ccccc4-c4ccccc4)o3)SC2=S)CC1 (stereo not drawn) [Compound C71, 4-{5-[1-(5-biphenyl-2-yl-furan-2-yl)-methylidene]-4-oxo-2-thioxo-thiazolidin-3-yl}-cyclohexanecarboxylic acid]	> 5.00	–	–
O=C(O)CCCCCN1C(=O)C(=Cc2ccc(-c3ccccc3OC(F)(F)F)o2)SC1=S [Compound B24]	> 5.00	–	–
COc1ccccc1-c1ccc(C=C2SC(=S)N(c3cccc(C(=O)O)c3)C2=O)o1 [Compound A135]	–	> 5.00	–
O=C(O)C(Cc1ccc(O)cc1)N1C(=O)C(=Cc2ccc(-c3cccc(C(F)(F)F)c3)o2)SC1=S (stereo not drawn) [Compound B52]	> 5.00	–	–
COc1ccc(-c2ccc(C=C3SC(=S)N(c4cccc(C(=O)O)c4)C3=O)o2)cc1F [Compound A177]	–	> 5.00	–
O=C(O)c1ccc(F)c(N2C(=O)C(=Cc3ccc(-c4ccccc4Cl)s3)SC2=S)c1 [Compound A190]	–	> 5.00	–
COc1ccc(-c2ccc(C=C3SC(=S)N(Nc4ccccc4C(=O)O)C3=O)o2)cc1 [Compound D14, 2-{5-[1-[5-(4-methoxy-phenyl)-furan-2-yl]-methylidene]-4-oxo-2-thioxo-thiazolidin-3-ylamino}-benzoic acid]	> 5.00	–	–
